Source: paper PMC6091370, “Preclinical Evaluation of [^18F]LCATD as a PET Tracer to Study Drug-Drug Interactions Caused by Inhibition of Hepatic Transporters” (Contrast Media & Molecular Imaging, 2018)
Values joined by “and” are separate entries in the source; they are usually repeats but may differ in a detail not shown here. Equal entries are not always repeated.

How the values were obtained:
OATP1B1 [1] = system: OATP1B1; set-up: method as in PMID 28011201; details: in vitro; cited from earlier work
[2] = set-up: method as in PMID 28011201; details: in vitro; cited from earlier work
BSEP [3] = system: BSEP; set-up: method as in PMID 28011201; details: in vitro; cited from earlier work
[4] = Postmortem biodistribution of the tracer (gamma counting, 50 min postinjection); type: in vivo, rat; details: for activity in the terminal blood sample versus control: p < 0.05
Procedure: Samples of the liver, heart, and kidney were collected at the end of the PET-CT scan (after euthanasia) and homogenised with methanol (80% in water, 5 mL per gram of biological sample) by means of a homogenizer. Samples were stored in preweighed plastic vials. Terminal blood was collected by cardiac puncture just before euthanasia. The activity of the homogenates and blood samples was measured by means of a precalibrated gamma counter as soon as possible after the PET experiment.

[5] = Dynamic PET/CT imaging of hepatic uptake and biliary excretion of [18F]LCATD in rats; type: in vivo, rat; details: for CLuptake,in vivo (in vivo hepatic uptake clearance): Patlak integration plot 0–3 min; for CLuptake,in vivo (in vivo hepatic uptake clearance) / t max (time to maximum peak concentration in liver) / AUCbile 0–10 min (radioactivity in the gastrointestinal tract) / AUCliver 0–5 min / AUCliver 0–30 min / CLint,bile (intrinsic biliary clearance of the radiotracer) / Kp liver 0−5 min (apparent liver-to-blood AUC0–5 min ratio) / Cmax,liver (maximum measured activity in the liver): n=3
Procedure: PET scans were performed with a preclinical PET/CT SEDECAL ARGUS scanner (SEDECAL, Spain) housed in a temperature-controlled suite. The scanner has two 11.8 cm diameter rings of photoswitch detectors coupled to position-sensitive photomultiplier tubes, giving a 4.8 cm axial and 7.5 cm transaxial field of view (FOV). All animals were cannulated (Venisystem Butterfly, Abbott Ireland) in the tail vein for tracer injection under general anaesthesia with isoflurane (IsoFlo 100% w/w, Abbott Laboratories Ltd) 2.5% (2 L·min^−1 oxygen flow). Animals were divided into three groups: control group (administered with [ ^18 F]LCATD only, 3 animals), rifamycin SV-treated group (3 animals) and fusidate-treated group (3 animals). All the animals were scanned in supine position. At the start of the scan, [ ^18 F]LCATD (5–15 MBq per body) was injected as a single bolus into the tail vein. Administered radioactivity was measured as the net counts in the syringe before and after the injection with an ionization chamber (Capintec CRC-15PET; Ramsey, New Jersey). The mass amount of [ ^18 F]LCATD administered per animal was estimated to be between 0.2 and 1 nmol. For inhibition experiments, rifamycin SV was administrated 45 minutes before the start of the scan at a dose of 50mg·Kg^−1 (intraperitoneally) and at the time of the tracer injection at a dose of 12.5 mg·Kg^−1 (intravenously). For the in vivo assessment of the inhibitory effect of sodium fusidate on the hepatobiliary transport of the tracer, the drug was administrated at a dose of 20 mg·Kg^−1 (intraperitoneally) 30 minutes before the scan and at a dose of 10 mg·Kg^−1 (intravenously) after 15 minutes from the tracer injection. Emission scans in 3D list-mode were acquired for 30 minutes (with a FOV encompassing part of the thorax and the intestine) followed by a 5 minutes CT scan. PET acquisitions were obtained with an energy window set to 250–700 keV and corrections for dead-time, activity decay, attenuation, random, and scatter counts were applied (using the manufacturer' software). The dynamic images were obtained by sorting the list mode data into the following time frames: 6 × 10 s, 8 × 30 s, 10 × 60 s, and 3 × 300 s, and images were reconstructed with a FORE/2D-OSEM reconstruction algorithm (provided by the manufacturer). Sampling at shorter intervals during early time-points enabled us to detect rapid increments of tracer uptake in the liver and intestine. […] A 5-minute PET scan of the injection site at the end of the CT was obtained to ensure successful intravenous injection. Cross calibration between the ionization chamber and the PET scanner was carried out by using a cylindrical phantom made of Perspex with internal diameter of 43 mm and length of 37 mm. 10 to 20 minute PET scans of the phantom filled with an average of about 4.20 MBq of [ ^18 F]LCATD in 60 g of water were acquired (average dead-time value 4%).
The registered PET and CT images were transferred from the scanner to a processing workstation, and subsequent analysis was carried out using Pmod (Pmod Technologies, CH) version 3.2. Regions of interest (ROIs) corresponding to abdominal aorta, liver, and gastrointestinal tract were defined via a combination of manual and threshold methods (Supplementary Figure 1 and movie) using PMOD software (PMOD Technologies). The stomach was included in the gastrointestinal ROI to include the amount of bile that might have refluxed from the duodenum into the stomach.
Uptake hepatic clearance CLuptake,in vivo was calculated by integration plots obtained applying the Patlak method in Pmod (Pmod Technologies, CH) version 3.2, limiting the linear fit to the uptake phase (0–3 min).
Intrinsic biliary clearance of the radiotracer CLint,bile was determined as proposed by Takashima et al. by quantification of the radiotracer in the liver and the intestine (as amount of radiotracer excreted into the bile).

NTCP [6] = system: NTCP; set-up: method as in PMID 28011201; details: in vitro; cited from earlier work
[7] = Postmortem metabolites analysis by radio-HPLC; type: in vivo, rat; details: 50 min postinjection
Procedure: Analysis of metabolites in the blood, liver, and bile (extracted from the intestine) was performed via radio-HPLC. Blood samples, collected by cardiac puncture at the end of the PET-CT scan, were treated with an equal volume of acetonitrile, centrifuged for 1 minute at 1000 rpm and the supernatant was injected in radio-HPLC (Shimadzu Prominence HPLC system equipped with a PDA UV detector and HERM LB500 activity detector and Phenomenex Luna C18 column, 5 μm, 100 Å, 250 × 4.6 mm, injection volume 20 µL, PBS/CH3CN 60 : 40, isocratic elution, flow: 1 mL·min^−1). Samples of the liver and duodenum were collected at the end of the PET-CT scan (after euthanasia) homogenated with methanol (80% in water, 5 mL per gram of biological sample) by means of a homogenizer and centrifuged for 1 minute at 1000 rpm and the supernatant was injected in radio-HPLC.

OATP1B3 = system: OATP1B3; set-up: method as in PMID 28011201; details: in vitro; cited from earlier work
OATP1B1 [8] = details: cited from earlier work
NTCP [9] = details: cited from earlier work
BSEP [10] = details: read-out: IC50 for BSEP; cited from earlier work
MRP2 transporter = system: MRP2 transporter; set-up: method as in PMID 27676153; details: 0.3–300 µM, increased efflux of LTC4, MRP2 transfected membrane vesicles; cited from earlier work
[11] = rifamycin SV-treated rats (total dose 62.5 mg·Kg^−1)

For `C[C@H](CCC(=O)NC(Cc1cn(CCCC[18F])nn1)C(=O)O)[C@H]1CC[C@H]2[C@@H]3CC[C@@H]4C[C@H](O)CC[C@]4(C)[C@H]3CC[C@]12C` (some centres unmarked) [[ ^18 F]LCATD, LithoCholic Acid Triazole Derivative], the “transport by uptake transporter OATP1B1” value (OATP1B1 [1]) is given as “substrate”, the passive permeability [2] is given as “low” and the “transport by efflux transporter BSEP” value (BSEP [3]) is given as “excreted into the bile via the efflux transporter BSEP”. For the same compound, the “activity in the terminal blood sample versus control” value ([4]; fusidate-treated rats) was “significantly increased”, the “activity in the kidneys” value ([4]; postmortem) was < 0.1 % of the injected dose and the “activity in the terminal blood sample versus control” value ([4]; rifamycin SV-treated rats) was “significantly increased”. For the same compound, the “activity in the liver 2 minutes after tracer injection” value (“activity in the liver 2 minutes” for short) ([5]; control rats) was 14.2 ± 0.8%, the “maximum activity recorded in the liver” value ([5]; control rats) was 14.2 ± 0.8 % of the injected dose and the “residual activity in the liver after 30 minutes” value ([5]; control rats) was 1.04 ± 0.17 % of the injected dose. The “CLuptake,in vivo (in vivo hepatic uptake clearance)” value (from here on “CLuptake,in vivo”) ([5]; control rats, image-derived blood input) was 2.09 ± 0.27 mL/min/g, the “t max (time to maximum peak concentration in liver)” value ([5]; control rats, [18F]LCATD only, iv bolus) was 2.25 min and the “AUCbile 0–10 min (radioactivity in the gastrointestinal tract)” value (shortened to “AUCbile 0–10 min”) ([5]; control rats) was 89 ± 1 % ID·min·mL^−1. The “AUCliver 0–5 min” value ([5]; control rats) was 58 ± 1 % ID·min·mL^−1, the “AUCliver 0–30 min” value ([5]; control rats) was 110 ± 15 % ID·min·mL^−1 and the “CLint,bile (intrinsic biliary clearance of the radiotracer)” value (from here on “CLint,bile”) ([5]; control rats) was 0.17 ± 0.03 mL/min/g. The “Kp liver 0−5 min (apparent liver-to-blood AUC0–5 min ratio)” value ([5]; control rats) was 3.64 ± 0.09, the “activity in the liver after 30 minutes” value ([5]; fusidate-treated rats) was 1.02 ± 0.02 % of the injected dose and the “t max (time to maximum peak concentration in liver)” value ([5]; fusidate-treated rats (20 mg·Kg^−1 ip 30 min before scan + 10 mg·Kg^−1 iv 15 min after tracer injection)) was 2.25 min. For the same compound, the “maximum activity recorded in the liver” value ([5]; fusidate-treated rats (30 mg·Kg^−1)) was 11.5 ± 0.3 % of the injected dose, the “CLuptake,in vivo” value ([5]; fusidate-treated rats) was 1.40 ± 0.13^∗ mL·min^−1·g^−1 and the “AUCbile 0–10 min” value ([5]; fusidate-treated rats) was 93 ± 19 % ID·min·mL^−1. For the same compound, the “AUCliver 0–5 min” value ([5]; fusidate-treated rats) was 48 ± 0.3^∗ % ID·min·mL^−1, the “AUCliver 0–30 min” value ([5]; fusidate-treated rats) was 89 ± 11 % ID·min·mL^−1 and the “CLint,bile” value ([5]; fusidate-treated rats) was 0.36 ± 0.03^∗ mL·min^−1·g^−1. For the same compound, the “Cmax,liver (maximum measured activity in the liver)” value ([5]; fusidate-treated rats) was 11.5 ± 0.3^∗ % ID·mL^−1, the “Kp liver 0−5 min (apparent liver-to-blood AUC0–5 min ratio)” value ([5]; fusidate-treated rats) was 2.451 ± 0.016 and the “activity in the liver 2 minutes” value ([5]; rifamycin SV-treated rats) was 8.0 ± 0.6%. For the same compound, the “activity in the liver after 30 minutes” value ([5]; rifamycin SV-treated rats) was 1.87 ± 0.13 % of the injected dose, the “t max (time to maximum peak concentration in liver)” value ([5]; rifamycin SV-treated rats (50 mg·Kg^−1 ip 45 min before scan + 12.5 mg·Kg^−1 iv at tracer injection)) was 3.75 min and the “delay of t max relative to control rats” value [5, 11] was 1.5 min. The “maximum activity recorded in the liver” value [5, 11] was 10.2 ± 0.9 % of the injected dose and 10.2 ± 1.0 % of the injected dose, the “CLuptake,in vivo” value ([5]; rifamycin SV-treated rats) was 0.71 ± 0.05^∗ mL·min^−1·g^−1 and the “AUCbile 0–10 min” value ([5]; rifamycin SV-treated rats) was 53 ± 3^∗ % ID·min·mL^−1. For the same compound, the “AUCliver 0–5 min” value ([5]; rifamycin SV-treated rats) was 44 ± 4^∗ % ID·min·mL^−1, the “AUCliver 0–30 min” value ([5]; rifamycin SV-treated rats) was 139 ± 9 % ID·min·mL^−1 and the “CLint,bile” value ([5]; rifamycin SV-treated rats) was 0.12 ± 0.03 mL/min/g. For the same compound, the “Cmax,liver (maximum measured activity in the liver)” value ([5]; rifamycin SV-treated rats) was 10.2 ± 0.9^∗ % ID·mL^−1, the “Kp liver 0−5 min (apparent liver-to-blood AUC0–5 min ratio)” value ([5]; rifamycin SV-treated rats) was 2.07 ± 0.17 and the “activity in the liver 2 minutes” value ([5]; sodium fusidate-treated rats) was 11.4 ± 0.4%. For the same compound, the “transport by uptake transporter NTCP” value (NTCP [6]) was “substrate”, the “metabolic stability of the tracer” value ([7]; in vivo, rat) was “at least 90%” and the “share of activity in intestine extracts as twin peak matching [18F]LCATD” value ([7]; radio-HPLC, intestine extracts of two control animals) was “over 90%”. For the same compound, the “transport by OATP1B3” value (OATP1B3) was “low affinity substrate”.
In the case of `CO[C@H]1/C=C/O[C@@]2(C)Oc3c(C)c(O)c4c(O)c(cc(O)c4c3C2=O)NC(=O)/C(C)=C\C=C\[C@H](C)[C@H](O)[C@@H](C)[C@@H](O)[C@@H](C)[C@H](OC(C)=O)[C@@H]1C` [rifamycin SV], the IC50 (OATP1B1 [8]) is listed as 0.2 to 0.4 µM, the Ki (NTCP [9]; read-out: K i for NTCP) is listed as > 63 µM and the IC50 (BSEP [10]) is listed as 6.3 µM.
In the case of `CC(=O)O[C@H]1C[C@@]2(C)[C@@H](C[C@@H](O)[C@H]3[C@@]4(C)CC[C@@H](O)[C@@H](C)[C@@H]4CC[C@@]32C)/C1=C(\CCC=C(C)C)C(=O)O` [sodium fusidate], the IC50 (OATP1B1 [8]) is listed as 1.6 to 35 µM, the IC50 (NTCP [9]) is listed as 44 µM and the IC50 (BSEP [10]) is listed as 3.8 to 11.5 µM.
In the case of `CC(=O)O[C@H]1C[C@@]2(C)[C@@H](C[C@@H](O)[C@H]3[C@@]4(C)CC[C@@H](O)[C@@H](C)[C@@H]4CC[C@@]32C)/C1=C(\CCC=C(C)C)C(=O)O` [fusidic acid], the “effect on MRP2 transporter (canalicular efflux) in vitro” value (MRP2 transporter) is given as “stimulate”.
